This note sets out measurements from ChEMBL document CHEMBL1124790, “Angiotensin converting enzyme inhibitors. 10. Aryl sulfonamide substituted N-[1-carboxy-3-phenylpropyl]-L-alanyl-L-proline derivatives as novel antihypertensives” (J Med Chem, 1990).

Each structure is given as a SMILES string. Values joined by “and” are separate entries in the source; they are usually repeats but may differ in a detail not shown here. Equal entries are not always repeated. Active and inactive are the calls of the source. The rule behind the calls is not given here.

In test [1] the target is T1, Angiotensin-converting enzyme (Oryctolagus cuniculus) (UniProt P12822).
T1 sequence (whole entry): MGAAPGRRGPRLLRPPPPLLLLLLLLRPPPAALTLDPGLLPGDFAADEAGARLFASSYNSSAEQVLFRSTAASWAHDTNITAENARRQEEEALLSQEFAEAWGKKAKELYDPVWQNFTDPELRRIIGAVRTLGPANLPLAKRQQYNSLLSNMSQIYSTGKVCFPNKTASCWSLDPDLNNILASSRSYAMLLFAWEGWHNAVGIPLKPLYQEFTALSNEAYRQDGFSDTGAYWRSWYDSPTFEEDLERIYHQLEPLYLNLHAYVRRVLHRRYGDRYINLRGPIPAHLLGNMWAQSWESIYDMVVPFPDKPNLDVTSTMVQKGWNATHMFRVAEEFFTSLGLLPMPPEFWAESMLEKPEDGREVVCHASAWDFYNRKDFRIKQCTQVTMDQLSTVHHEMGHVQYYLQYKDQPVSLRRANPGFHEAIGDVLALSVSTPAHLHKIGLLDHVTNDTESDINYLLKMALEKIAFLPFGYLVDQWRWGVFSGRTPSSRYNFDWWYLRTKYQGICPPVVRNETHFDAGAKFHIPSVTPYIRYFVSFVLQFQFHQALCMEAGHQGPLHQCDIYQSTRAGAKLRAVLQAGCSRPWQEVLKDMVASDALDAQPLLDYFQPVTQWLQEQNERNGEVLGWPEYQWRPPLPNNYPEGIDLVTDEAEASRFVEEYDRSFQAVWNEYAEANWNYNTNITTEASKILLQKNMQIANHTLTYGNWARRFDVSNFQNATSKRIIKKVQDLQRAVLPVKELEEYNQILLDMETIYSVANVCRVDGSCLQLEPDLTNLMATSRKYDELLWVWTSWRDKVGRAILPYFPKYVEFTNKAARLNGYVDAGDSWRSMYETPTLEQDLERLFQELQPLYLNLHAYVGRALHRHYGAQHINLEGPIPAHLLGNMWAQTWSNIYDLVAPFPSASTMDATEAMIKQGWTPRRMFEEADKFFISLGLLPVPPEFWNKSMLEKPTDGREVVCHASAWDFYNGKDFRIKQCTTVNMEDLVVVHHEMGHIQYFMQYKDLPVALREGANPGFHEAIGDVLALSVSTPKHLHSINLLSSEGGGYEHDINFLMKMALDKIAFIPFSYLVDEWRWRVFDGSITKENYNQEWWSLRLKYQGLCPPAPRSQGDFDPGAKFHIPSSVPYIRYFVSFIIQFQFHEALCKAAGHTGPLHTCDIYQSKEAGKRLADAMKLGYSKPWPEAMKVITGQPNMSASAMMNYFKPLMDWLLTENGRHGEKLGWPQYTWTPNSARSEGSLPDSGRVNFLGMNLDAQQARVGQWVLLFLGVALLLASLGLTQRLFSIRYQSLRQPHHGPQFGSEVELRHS
Put plainly: Time to inhibit maximum Angiotensin I converting enzyme in rabbit lung. Type of test: functional, tissue-based.

Test [2] has as its target T1, Angiotensin-converting enzyme (Oryctolagus cuniculus). Put plainly: In vivo inhibition of Angiotensin I converting enzyme in rabbit lung after (po) administration of a dose of 10(mg/kg). Type of test: organism-based.
The target is the same in test [3]. As to conditions: Lung.
The target is the same in test [4]. The experiment in a line: Time to inhibit maximum angiotensin I converting enzyme in rabbit lung. Type of test: functional, tissue-based.
The target is the same in test [5]. The experiment in a line: Time to maximum inhibition of angiotensin I converting enzyme in rabbit lung. Type of test: functional, tissue-based.
Test [6] deals with T2, Angiotensin-converting enzyme (Oryctolagus cuniculus, UniProt P12822).
T2 sequence (P12822 whole entry): T1 sequence (whole entry)
Put plainly: In vitro inhibition of angiotensin I converting enzyme (ACE) in rabbit lung. Type of test: tissue-based.

The target of test [7] is T1, Angiotensin-converting enzyme (Oryctolagus cuniculus). Put plainly: In vivo inhibition of angiotensin I converting enzyme(ACE) in rabbit lung at the dose of 10(mg/kg), po. Type of test: organism-based.
The test system of test [8] is Rattus norvegicus. Put plainly: Percent change in K+ in fasted rats at the dose of 100 mg/kg (iv), 0-5 h; NA=Inactive. Type of test: functional, organism-based. On the set-up: dose 100 mg/kg.
Test [9] deals with Rattus norvegicus. The experiment in a line: Percent change in K+ in fasted rats at the dose of 100 mg/kg (po), 0-5 h. Type of test: functional.
The subject of test [10] is Rattus norvegicus. The experiment in a line: Percent change in K+ in fasted rats at the dose of 100 mg/kg (po), 5-24 h. Type of test: functional.
The test system of test [11] is Rattus norvegicus. The experiment in a line: Percent change in Na+in fasted rats at the dose of 100 mg/kg (po), 0-5 h. Type of test: functional.
For test [12], the system named is Rattus norvegicus. The experiment in a line: Percent change in Na+in fasted rats at the dose of 100 mg/kg (po), 5-24 h. Type of test: functional.
The subject of test [13] is Rattus norvegicus. Put plainly: Percent change in urinary volume in fasted rats at the dose of 100 mg/kg (po), 0-5 h. Type of test: functional, Urine.
Test [14] has as its system Rattus norvegicus. Put plainly: Percent change in urinary volume in fasted rats at the dose of 100 mg/kg (po), 5-24 h. Type of test: functional, Urine.
Test [15] addresses T1, Angiotensin-converting enzyme (Oryctolagus cuniculus). The experiment in a line: In vivo inhibition of angiotensin I converting enzyme (ACE) in rabbit lung after (ip) administration of a dose of 10(mg/kg). Type of test: organism-based.
For test [16] the target is unchanged. Put plainly: Time during which angiotensin I converting enzyme inhibition is greater than or equa to 30% in rabbit lung. Type of test: functional, tissue-based.
Test [17] has the same target. Put plainly: In vivo inhibition of angiotensin I converting enzyme (ACE) in rabbit lung after (po) administration of a dose of 10(mg/kg). Type of test: organism-based.
Test [18] relates to Rattus norvegicus. The experiment in a line: Percent change in K+ in fasted rats at the dose of 30 mg/kg (ip), 0-5 h; NA=Inactive. Type of test: functional, organism-based. More on the design: dose 30 mg/kg.
For test [19], the target named is T1, Angiotensin-converting enzyme (Oryctolagus cuniculus). Put plainly: In vivo inhibition of angiotensin I converting enzyme (ACE) in rabbit lung after (iv) administration of a dose of 10(mg/kg). Type of test: organism-based.
Test [20] relates to Rattus norvegicus. Put plainly: Percent change in K+ in fasted rats at the dose of 30 mg/kg (iv), 0-5 h. Type of test: functional.
The subject of test [21] is Rattus norvegicus. Put plainly: Percent change in Na+ in fasted rats at the dose of 30 mg/kg (iv), 0-5 h. Type of test: functional.
Test [22] concerns Rattus norvegicus. The experiment in a line: Percent change in urinary volume in fasted rats at the dose of 30 mg/kg (iv), 0-5 h. Type of test: functional, Urine.
The subject of test [23] is Rattus norvegicus. The experiment in a line: Time duration was determined for the actioni (determination of MAP in case of oral administration) in rat. Type of test: functional.
The subject of test [24] is Rattus norvegicus. The experiment in a line: Time duration was determined for the actioni (determination of MAP in ip administration) in rat. Type of test: functional.
The species named for test [25] is Rattus norvegicus. The experiment in a line: The onset hour was determined in rat. Type of test: functional.
The target in test [26] is T1, Angiotensin-converting enzyme (Oryctolagus cuniculus). Put plainly: In vivo inhibition of angiotensin I converting enzyme (ACE) in rabbit lung at the dose of 10(mg/kg), po. Type of test: organism-based.
In test [27] the test system is Rattus norvegicus. Put plainly: Antihypertensive activity was determined in spontaneously hypertensive rat at a dose of 100 mg/kg(po) administration. Type of test: functional. As to conditions: 100 mg/kg.

Molecule `C[C@H](CS)C(=O)N1CCC[C@H]1C(=O)O` registered a Time to max. inhibition in test [1] of 0.7 h. Also, the inhibition in [2] worked out at 69%. The molecule further gave a Duration in test [3] of 2 h.
In the case of `C[C@H](N[C@@H](CCc1ccccc1)C(=O)O)C(=O)N1C(c2ccc(Cl)c(S(N)(=O)=O)c2)SC[C@H]1C(=O)O` (stereo partly specified), the Time to max. inhibition in [4] and in test [5] was 0.3 h each time. 8 nM corresponded to half-maximal inhibition in test [6] (IC50). Moreover, the inhibition was 44% in test [7] and 96% in [15]. For the same molecule, the Change result in the test on Rattus norvegicus [8] was “inactive”. Moreover, the Change in the test on Rattus norvegicus [9] was 0%; in the test with Rattus norvegicus [10], -45%; in the test with Rattus norvegicus [11] it was 0%; with Rattus norvegicus [12], -22%; in the test on Rattus norvegicus [13], -43%; in the test on Rattus norvegicus [14] it was -42%.
Molecule `C[C@H](N[C@@H](CCc1ccccc1)C(=O)O)C(=O)N1CC2(C[C@H]1C(=O)O)Nc1cc(Cl)c(S(N)(=O)=O)cc1S(=O)(=O)N2` (stereo partly specified) displayed a Time to max. inhibition in [4] of 1 h. Further, in test [16], the Duration stood at 2.1 h. Half-maximal inhibition in [6] (IC50) was put at 85 nM. The molecule further registered an inhibition in [17] of 54%. Besides, the Change result with Rattus norvegicus [18] was “inactive”.
As to `C[C@H](N[C@@H](CCc1ccccc1)C(=O)O)C(=O)N1C[C@@H](NS(=O)(=O)c2cc3c(cc2Cl)N=CNS3(=O)=O)C[C@H]1C(=O)O`, the IC50 in test [6] turned out to be 23 nM.
As for `C[C@H](N[C@@H](CCc1ccccc1)C(=O)O)C(=O)N1CC(N(C)CCC2Nc3cc(Cl)c(S(N)(=O)=O)cc3S(=O)(=O)N2)C[C@H]1C(=O)O.Cl.Cl` (stereo partly specified), the Time to max. inhibition in [4] is 2.7 h and 3 h. Besides, the Duration in test [16] is > 4 h and 3.7 h; with Rattus norvegicus [23], more than 42 h; in the test on Rattus norvegicus [24], more than 24 h. Inhibition in test [6] was half-maximal at 18 nM (IC50). The inhibition in test [19] amounted to 96%; in test [26], 37%. The Change with Rattus norvegicus [9] was 40%; with Rattus norvegicus [20] it was 0%; in the test on Rattus norvegicus [21], 0%; in the test on Rattus norvegicus [11], 36%; in the test on Rattus norvegicus [13] it was 0%; with Rattus norvegicus [22], 0%. For the same molecule, in the test listed under Rattus norvegicus [25], the Onset was 0.5 h. The “Change in MAP” value with Rattus norvegicus [27] was -20% and -22%.

For orientation: inhibition means the percentage by which the read-out fell short of the control. Read a low inhibition as little suppression. Broadly, the IC50 is the concentration at which inhibition is half-maximal.
